Assay results reported in the OligoGym collection.
Several values for one entry are separate records, joined by “and”; a condition that tells them apart may be missing. Equal values may be shown once. After the bases stand the sugars from the 5' end (letter, count) and the backbone: PS all phosphorothioate, else s phosphorothioate and o phosphodiester by linkage. Methylation of C is not given here. e = 2'-O-(2-methoxyethyl) (MOE); k = constrained ethyl (cEt); d = 2'-deoxy (DNA)

Target: IRF4
Conditions: ASO, MM.1R, 0.0625 µM

Compared with AACCTTAAGCTATTTG (sugars k3 d10 k3, PS), CGACACGCGCCGCTCG (sugars k3 d10 k3, PS) is higher in target mRNA inhibition: -10% for the first, -6% for the second.

With GGGTATTTATAACCGG (sugars k3 d10 k3, PS) the target mRNA inhibition was -16% and 5% and 1%.

Same assay, conditions: ASO, MM.1R, 0.074 µM

Work on GGGTATTTATAACCGG (sugars k3 d10 k3, PS) yielded a target mRNA inhibition of -4%.

Same assay, conditions: ASO, MM.1R, 0.222 µM

With GGGTATTTATAACCGG (sugars k3 d10 k3, PS) the target mRNA inhibition was -19%.

Same assay, conditions: ASO, MM.1R, 0.25 µM

Going from AACCTTAAGCTATTTG (sugars k3 d10 k3, PS) to CGACACGCGCCGCTCG (sugars k3 d10 k3, PS), the target mRNA inhibition falls from -5% to -10%.

Same assay, conditions: ASO, MM.1R, 0.666 µM

Sequence GGGTATTTATAACCGG (sugars k3 d10 k3, PS) has a target mRNA inhibition of -4%.

Same assay, conditions: ASO, MM.1R, 1 µM

Going from “ACACTTTTAGAGAGGA (sugars kkddddddddddkeke, PS)” to “ACTGCTTGAGGTTTTC (sugars kkddddddddddkeke, PS)”, the target mRNA inhibition rises from 14% to 21%.

First: TGCGGAGGTTCCTTGA (sugars k3 d10 k3, PS)
Second: CAGTGTGATTAATTCT (sugars k3 d10 k3, PS)
The target mRNA inhibition of the first is lower: 12% for the first, 17% for the second.

Going from “GAAGCATTTTATCATC (sugars kkkddddddddkekek, PS)” to “GGGATTATATACTGGT (sugars kkdddddddddekeke, PS)”, the target mRNA inhibition rises from -5% to 34%.

First: CAGATTAATAGTAAGT (sugars k3 d10 k3, PS)
Second: ACTTATAGCACTCTCC (sugars k3 d10 k3, PS)
The target mRNA inhibition of the first is lower: -12% for the first, 1% for the second.

Compared with TGTGCAAAACCAGTAC (sugars k3 d10 k3, PS), AATATAACGGTGTTTC (sugars k3 d10 k3, PS) is higher in target mRNA inhibition: -20% for the first, 8% for the second.

First: GGCGCATAGGTCCTTC (sugars k3 d10 k3, PS)
Second: TGCTTGAGGTTTTCCT (sugars e1 k2 d9 k2 e2, PS)
The target mRNA inhibition of the first is lower: -7% for the first, 35% for the second.

Compared with “GATTATATACTGGTTG (sugars kkdddddddddkdkdk, PS)”, CGTAGTCCCTCCAGCT (sugars k3 d10 k3, PS) is lower in target mRNA inhibition: 35% for the first, 27% for the second.

Compared with CACTGCCGTGATCTGA (sugars k3 d10 k3, PS), “TGATAGCTGAGCTGAT (sugars k2 d9 e3 k2, PS)” is lower in target mRNA inhibition: 9% for the first, -2% for the second.

Going from TCTACTGGAGTCAAGC (sugars k3 d10 k3, PS) to “GTTGGCTGGTCTTTGT (sugars kddddddddddkekek, PS)”, the target mRNA inhibition falls from 30% to 23%.

First: TCTGAGTAGACTTCTT (sugars k3 d10 k3, PS)
Second: AAGCATTTTATCATCC (sugars kkdddddddddkdkdk, PS)
The target mRNA inhibition of the first is higher: 14% for the first, 3% for the second.

Going from ATCTGTATCATGCATA (sugars k3 d10 k3, PS) to CGCCGGCACAGGCGCG (sugars k3 d10 k3, PS), the target mRNA inhibition falls from 24% to 14%.

Going from “TGGTTGGCTGGTCTTT (sugars kkdddddddddkdkdk, PS)” to “AGTATGAGAAACGGCC (sugars e1 k2 d9 k2 e2, PS)”, the target mRNA inhibition falls from 51% to 12%.

First: AAAGAAGCAAGTCGGT (sugars k3 d10 k3, PS)
Second: GGCATCATGTAGTTGT (sugars k3 d10 k3, PS)
The target mRNA inhibition of the first is lower: -2% for the first, -1% for the second.

Compared with “GAAGCATTTTATCATC (sugars kdddddddddkekeke, PS)”, “ACGGAAGTTTACACTG (sugars kkkddddddddkekek, PS)” is higher in target mRNA inhibition: 4% for the first, 14% for the second.

Going from GGTAGTAGACCACAGT (sugars k3 d10 k3, PS) to “CTGCTTGAGGTTTTCC (sugars kddddddddddkekek, PS)”, the target mRNA inhibition falls from 23% to 8%.

Going from CAAAAGGTAGTAGACC (sugars k3 d10 k3, PS) to “TCAGTTTGTGAAGCAT (sugars e1 k2 d9 k2 e2, PS)”, the target mRNA inhibition rises from 11% to 47%.

First: AGTATGAGAAACGGCC (sugars kkkddddddddkekek, PS)
Second: ACGGAAGTTTACACTG (sugars k2 d9 e3 k2, PS)
The target mRNA inhibition of the first is lower: 10% for the first, 15% for the second.

TTTCAACTTGTGACCC (sugars k3 d10 k3, PS) showed a target mRNA inhibition of 1%.

For “AATGTGTATTACTCTT (sugars k2 d9 e3 k2, PS)”, the target mRNA inhibition was 15% and 17%.
For ACCGGTAGAGTGAGAT (sugars k3 d10 k3, PS), the target mRNA inhibition was 16% and 2%.
For “CACATCAATGTTTTAG (sugars kdddddddddkekeke, PS)”, the target mRNA inhibition was -2% and 18%.
CATTGCTAGATTCTCC (sugars k3 d10 k3, PS) was tested, and the target mRNA inhibition was 18% and 30%.
“TTTATGTTAGCCAATT (sugars k2 d9 e3 k2, PS)” was tested, and the target mRNA inhibition was 3% and 21%.
With CAAGCAGTGATGTCAG (sugars k3 d10 k3, PS) the target mRNA inhibition was 60% and 51%.
In the case of GGGTATTTATAACCGG (sugars k3 d10 k3, PS), the target mRNA inhibition is reported as 1% and 7% and 26%.
With “CACATCAATGTTTTAG (sugars kkdddddddddkdkdk, PS)” the target mRNA inhibition was 28% and 37%.

Same assay, conditions: ASO, MM.1R, 2 µM

For GGGTATTTATAACCGG (sugars k3 d10 k3, PS), the target mRNA inhibition was 9%.

Same assay, conditions: ASO, MM.1R, 4 µM

Compared with AACCTTAAGCTATTTG (sugars k3 d10 k3, PS), CGACACGCGCCGCTCG (sugars k3 d10 k3, PS) is lower in target mRNA inhibition: 48% for the first, -13% for the second.

In the case of GGGTATTTATAACCGG (sugars k3 d10 k3, PS), the target mRNA inhibition is reported as 12% and 24% and 34%.

Same assay, conditions: ASO, SK-MEL-28, 0.185 µM

Sequence ACTATAATTGGCACGA (sugars k3 d10 k3, PS) has a target mRNA inhibition of 6%.

Same assay, conditions: ASO, SK-MEL-28, 4 µM

Going from ATGGAACCCCAAAATC (sugars k3 d10 k3, PS) to ATGCTTGGCTCTGTGG (sugars k3 d10 k3, PS), the target mRNA inhibition rises from 24% to 76%.

Going from CCTGAACATGACTGGG (sugars k3 d10 k3, PS) to TGGCGGATAGATCTGT (sugars k3 d10 k3, PS), the target mRNA inhibition falls from 38% to 34%.

Going from GCGCAAAACCCCTCAA (sugars k3 d10 k3, PS) to GTGTTTGGTGGGAATC (sugars k3 d10 k3, PS), the target mRNA inhibition rises from 22% to 46%.

Going from ACTATAATTGGCACGA (sugars k3 d10 k3, PS) to TCCAGGTGGCTCAGCA (sugars k3 d10 k3, PS), the target mRNA inhibition falls from 69% to 41%.

Compared with AGAACGAGGTAAATCT (sugars k3 d10 k3, PS), GGACAGCCAAACAAAC (sugars k3 d10 k3, PS) is lower in target mRNA inhibition: 40% for the first, 7% for the second.

Going from AGGGTCACAGGTAAGG (sugars k3 d10 k3, PS) to CAAAAGTGCCACAACT (sugars k3 d10 k3, PS), the target mRNA inhibition falls from 68% to 10%.

First: GCCACATTAGCAATTA (sugars k3 d10 k3, PS)
Second: GTTGAAAGAACCAAGC (sugars k3 d10 k3, PS)
The target mRNA inhibition of the first is lower: 8% for the first, 11% for the second.

First: TAAAACCTCATCCCCT (sugars k3 d10 k3, PS)
Second: GCAACTAGCAGGGCAC (sugars k3 d10 k3, PS)
The target mRNA inhibition of the first is lower: -26% for the first, 53% for the second.

Compared with TCCAAGCAATTATTCC (sugars k3 d10 k3, PS), CAAGGCTACAGGCACG (sugars k3 d10 k3, PS) is higher in target mRNA inhibition: 12% for the first, 51% for the second.

Going from AAGCAAGTGGAGGTCT (sugars k3 d10 k3, PS) to GGCCGCCGTGAGCTTG (sugars k3 d10 k3, PS), the target mRNA inhibition falls from 51% to 3%.

Going from CTACTGGGTACATGGC (sugars k3 d10 k3, PS) to CCGTAGTCAGCTCCAT (sugars k3 d10 k3, PS), the target mRNA inhibition falls from 84% to 73%.

Going from GGTCAAAAAGATGCAG (sugars k3 d10 k3, PS) to TCTCAGCAAAACGCAG (sugars k3 d10 k3, PS), the target mRNA inhibition falls from 51% to 27%.

Compared with CTTGGAGAAGTCCCGT (sugars k3 d10 k3, PS), CACTGGCATCGAGACG (sugars k3 d10 k3, PS) is higher in target mRNA inhibition: 39% for the first, 61% for the second.

First: GTGCAGTTCCGTAGTC (sugars k3 d10 k3, PS)
Second: GTCAAAGAGCTTGCAG (sugars k3 d10 k3, PS)
The target mRNA inhibition of the first is lower: 21% for the first, 44% for the second.

First: AATGAACGGAAGTTTA (sugars k3 d10 k3, PS)
Second: TGGCACCAAAAGTACC (sugars k3 d10 k3, PS)
The target mRNA inhibition of the first is lower: 33% for the first, 34% for the second.

Compared with GATCATCAACTTCTTT (sugars k3 d10 k3, PS), GCTTCCCGTTGCCGCA (sugars k3 d10 k3, PS) is lower in target mRNA inhibition: 43% for the first, 18% for the second.

Compared with TCAAACTATAATTGGC (sugars k3 d10 k3, PS), ACTGCTGTGTGTCAAA (sugars k3 d10 k3, PS) is lower in target mRNA inhibition: 74% for the first, -6% for the second.

Compared with CACCAAGGTCCAGAGT (sugars k3 d10 k3, PS), ATTCTCCTCAACCGCT (sugars k3 d10 k3, PS) is higher in target mRNA inhibition: 20% for the first, 35% for the second.

Compared with GATGCAGCTGGCCACA (sugars k3 d10 k3, PS), CTTAGAATGCATAACA (sugars k3 d10 k3, PS) is lower in target mRNA inhibition: 73% for the first, 26% for the second.

Compared with TGATATTAGAGACTGT (sugars k3 d10 k3, PS), GTGGGAGTCGGAGCTC (sugars k3 d10 k3, PS) is lower in target mRNA inhibition: 60% for the first, 17% for the second.

Compared with TTTATGAGCTTCCACA (sugars k3 d10 k3, PS), CAGATGGCATGCGAAT (sugars k3 d10 k3, PS) is lower in target mRNA inhibition: 54% for the first, 35% for the second.

Compared with CAAGACAGGTCTCTAC (sugars k3 d10 k3, PS), TCTTACAGCAATCTTA (sugars k3 d10 k3, PS) is lower in target mRNA inhibition: 34% for the first, 32% for the second.

Going from GGACCTGGTCCAGGTT (sugars k3 d10 k3, PS) to TGATAGGTATACTTAA (sugars k3 d10 k3, PS), the target mRNA inhibition rises from -2% to 28%.

First: CCTACATACATTAATA (sugars k3 d10 k3, PS)
Second: ATACTGTAAGGGCTGC (sugars k3 d10 k3, PS)
The target mRNA inhibition of the first is lower: -7% for the first, 54% for the second.

Compared with GCAGCTCCTACATACA (sugars k3 d10 k3, PS), GTTAGCTACAAAGAGC (sugars k3 d10 k3, PS) is lower in target mRNA inhibition: 53% for the first, 41% for the second.

Compared with GGGTATTTATAACCGG (sugars k3 d10 k3, PS), CCTTAGGATAATATAC (sugars k3 d10 k3, PS) is lower in target mRNA inhibition: 59% for the first, 23% for the second.

First: TGCTGATCCTGGGAGT (sugars k3 d10 k3, PS)
Second: GGCAACCATTTTCACA (sugars k3 d10 k3, PS)
The target mRNA inhibition of the first is higher: 79% for the first, -17% for the second.

Going from GGCACTACTTCCAAAA (sugars k3 d10 k3, PS) to CCTGAGAGTAAACTTG (sugars k3 d10 k3, PS), the target mRNA inhibition falls from 31% to 18%.

Work on GTATTTATGCCCTCGC (sugars k3 d10 k3, PS) yielded a target mRNA inhibition of 53%.

In the case of TTCTTATGCATGTTCC (sugars k3 d10 k3, PS), the target mRNA inhibition is reported as 65% and 80%.
For CTGAACTGAAATCTCC (sugars k3 d10 k3, PS), the target mRNA inhibition was 64% and 63%.

Same assay, conditions: ASO, SK-MEL-28, 5 µM

Work on ACTATAATTGGCACGA (sugars k3 d10 k3, PS) yielded a target mRNA inhibition of 72%.

Same assay, conditions: ASO, SK-MEL-28, 15 µM

With ACTATAATTGGCACGA (sugars k3 d10 k3, PS) the target mRNA inhibition was 90%.
